Test results as given in patent US10113147B2, “Method for producing megakaryocytes, platelets and/or thrombopoietin using mesenchymal cells” (AdipoSeeds, Inc., priority 2013, dated 2018).
Counter-ions that a name gives are not always drawn. Blank lines part the entries; values can stand above or below the compound they belong to.

Tests used:
Format in all cases: cell-based
[1] = system: preadipocytes; assay: CD71 knock-down by siRNA: TPO in culture supernatant by ELISA
Protocol: A medium was prepared by removing bovine serum albumin, insulin, LDL cholesterol and 2-β-mercaptoethanol from MKLI medium. The medium is the same as a medium (“basic medium+transferrin”), which is prepared by adding 200 μg/mL iron-bound transferrin to a medium (of MKLI medium) corresponding to a basic medium (a medium prepared by adding, to Iscove's Modified Dulbecco's Medium, IMDM), 2 mM L-glutamine, a 100 U/mL penicillin-streptomycin solution, and nucleotides (ATP, UTP, GTP, and CTP, 20 μM for each) and corresponding to a medium prepared by adding 200 μg/mL iron-bound transferrin to “the particularly preferable basic medium in the present invention” described in the detailed description of the present application. To preadipocytes, a gene of siRNA of transferrin receptor CD71 (siRNA-CD71) (the sequence of a sense strand is represented by SEQ. ID No. 1, whereas the sequence of the antisense strand is represented by SEQ. ID No. 2) or a scrambled oligo (negative control) (the sequence of a sense strand is represented by SEQ. ID No. 3, whereas the sequence of the antisense strand is represented by SEQ. ID No. 4) was introduced. The resultant preadipocytes were cultured in the aforementioned “basic medium+transferrin”. TPO in each of the culture supernatants was measured by ELISA quantitation using the TPO Quantikine ELISA kit (manufactured by R&D Systems). In Table 6, “unmeasurable” means that measurement values are equivalent to the value of the background. As is apparent from Table 6, TPO was secreted from preadipocytes using the scrambled oligo, whereas TPO was not secreted from preadipocytes in which transferrin receptor CD71 was knocked down by siRNA.

[2] = system: human preadipocytes; assay: CD71 knock-down by siRNA: CD41-positive cells by flow cytometry
Description: (§1) In consideration of the results, whether a transferrin receptor CD71 knock-down preadipocytes have differentiation potency to megakaryocytes and platelets or not was checked. To human preadipocytes, a gene of siRNA of CD71 (siRNA-CD71) (the sequence of a sense strand is represented by SEQ. ID No. 1, whereas the sequence of the antisense strand is represented by SEQ. ID No. 2) or a scrambled oligo (negative control) (the sequence of a sense strand is represented by SEQ. ID No. 3, whereas the sequence of the antisense strand is represented by SEQ. ID No. 4) was introduced. Forty eight hours later, the human preadipocytes were cultured in a medium prepared by adding transferrin alone to the basic medium, for four days.
(§2) Human preadipocytes on Day 4 after culture were directly labeled with a FITC-labeled anti-CD41 antibody and analyzed by flow cytometry. As a result, production of megakaryocytes and platelets was not observed in CD71 knock-down human preadipocytes (Table 1).

[3] = system: transferrin receptor CD71; assay: CD71 knock-down by siRNA: CD71 % in human preadipocytes
Description: as §1, §2

[4] = system: transferrin receptor CD71; assay: CD71 knock-down by siRNA: CD71 % (Example 11)
[5] = system: mouse hematopoietic stem cells; assay: Differentiation of hematopoietic stem cells into megakaryocytes/platelets
Description: Activity of TPO secreted during the process of producing megakaryocytes/platelets from preadipocytes was investigated based on the presence or absence of differentiation-inducing property of mouse hematopoietic stem cells into megakaryocytes/platelets when TPO was used. Whether platelets are produced or not was checked based on the shape analyzed by an optical microscope and flow-cytometric expression analysis of platelet specific marker CD41.

[6] = system: mouse preadipocytes; assay: Identification of megakaryocyte/platelet production inducing substance (CD41 flow cytometry); details: reagent added alone to basic medium, Day 7
Protocol: In order to identify an important factor(s) for inducing production of megakaryocytes/platelets from preadipocytes, mediums were prepared by separately adding individual reagents contained in a differentiation-inducing medium (MKLI medium) for megakaryocytes/platelets, to a basic medium (IMDM medium containing 2 mM L-glutamine, a 100 U/mL penicillin-streptomycin solution, and nucleotides (ATP, UTP, GTP, and CTP, 20 μM for each)). More specifically, five types of mediums were prepared by adding 0.5% bovine serum albumin, 10 μg/mL insulin, 4 μg/mL LDL cholesterol, 200 μg/mL iron-saturated transferrin (iron-bound transferrin) and 50 μM 2-β-mercaptoethanol, respectively, to the basic mediums (FIG. 5). Mouse preadipocytes maintenance-cultured in accordance with the method of Example 1 were cultured in the above five types of mediums and in the basic medium, i.e., in total 6 types of medium (FIG. 5) for 7 days.
The mouse preadipocytes on Day 7 after culture in each of the mediums were directly labeled with a FITC-labeled anti-CD41 antibody and analyzed by flow cytometry.

[7] = system: preadipocytes; assay: Effect of iron chelator and apo-transferrin on ratio of CD41-positive cells; details: Day 4
Protocol: To investigate effect of an iron ion on induction of preadipocytes into megakaryocytes/platelets, analysis using the preadipocytes was made. Specifically, a medium (basic medium+iron-bound transferrin+Desferal (deferoxamine mesylate)) was prepared by adding an iron chelator, Desferal (deferoxamine mesylate, manufactured by Novartis Pharma K. K.) to a basic medium containing 200 μg/mL iron-bound transferrin, or a medium (basic medium+apo-transferrin) was prepared by adding a non-iron-bound transferrin, apo-transferrin (manufactured by Athens Research and Technology) to a basic medium alone. Cells were cultured in these mediums and the ratio (%) of CD41 (specific marker of megakaryocytes and platelets)—positive cells in the cells on Day 4 after the culture was determined. The results of Desferal (deferoxamine mesylate) addition are shown in Table 3; whereas the results of apo-transferrin addition are shown in Table 4.

[8] = system: mouse preadipocytes; assay: CD41-positive ratio of sorted adipose tissue-derived cell fractions cultured with iron-bound transferrin; details: CD31 negative, 200 μg/mL, Day 5
Protocol: A subcutaneous adipose tissue was isolated from a mouse. To this, collagenase was added. The mixture was incubated at 37° C. for one hour and centrifuged to obtain a cell layer as a lower layer. Thereafter, these cells were labeled with a fluorescence-labeled anti-CD45 antibody (manufactured by BD Bioscience), a fluorescence-labeled anti-Ter119 antibody (manufactured by BD Bioscience) and 7AAD (manufactured by BD Bioscience), and fluorescence was measured by flow cytometry. Of the cells shown in FIG. 7, upper right panel, cells of CD45 negative, Ter119 negative and 7-AAD negative (cells under the line at the center of the upper right panel of FIG. 7) were separately taken. CD45 is known as a marker of hematopoietic cells (leucocytes, lymphocytes, eosinophils, monocytes, basophils, and neutrophils) excluding erythrocytes and platelets. Ter119 is known as a marker of mature erythrocytes and erythroid progenitor cells. 7-AAD (7-amino-actinomycin D) is known as a marker of dead cells.
Subsequently, CD45 negative, Ter119 negative and 7-AAD negative cells separately taken were labeled with a fluorescence-labeled anti-CD31 antibody (manufactured by BD Bioscience) and fluorescent was measured by flow cytometry. Of the cells shown in the lower left panel of FIG. 7, CD31 negative cells (cells under the line of the center of the lower left panel of FIG. 7) were separately taken. […]
Subsequently, the cells (CD45 negative, Ter119 negative, 7-AAD negative and CD31 negative) previously separately taken were labeled with a fluorescence-labeled anti-c-MPL antibody (manufactured by BD Bioscience) and a fluorescence-labeled anti-CD71 antibody (manufactured by BD Bioscience), and fluorescence was measured by flow cytometry. […]
The cells shown in individual portions of the left panel of FIG. 8 were separately cultured in a medium prepared by adding 200 μg/mL iron-bound transferrin to the basic medium described in Example 3. The ratio (%) of CD41 (specific marker of megakaryocytes/platelets)-positive cells in the cells on Day 5 after initiation of culture was determined. […]

[9] = system: human preadipocytes; assay: Ratio of CD41-positive cells at different iron-bound transferrin concentrations; details: Day 4
Protocol: Human preadipocytes maintenance-cultured in accordance with the method of Example 1 were prepared and cultured in mediums prepared by adding iron-bound transferrin samples different in concentration to the basic medium described in Example 3. The ratio (%) of CD41 (specific marker of megakaryocytes and platelets)-positive cells in the cells on Day 4 after initiation of the culture was determined.

[10] = system: human preadipocytes; assay: TPO production at different iron-bound transferrin concentrations; details: for TPO: Day 4
[11] = Day 0 (48 hours after siRNA introduction)
[12] = Day 2, basic medium+transferrin
[13] = Day 4, basic medium+transferrin
[14] = Day 4 of culture in basic medium + transferrin
[15] = iron-bound transferrin 25 μg/mL in basic medium
[16] = iron-bound transferrin 50 μg/mL in basic medium
[17] = iron-bound transferrin 100 μg/mL in basic medium
[18] = iron-bound transferrin 200 μg/mL in basic medium
[19] = iron-bound transferrin 400 μg/mL in basic medium

Compound: siRNA-CD71: siRNA of transferrin receptor CD71; sense strand SEQ. ID No. 1, antisense strand SEQ. ID No. 2 (sense GAACUUGAAACUGCGUAAATT; antisense UUUACGCAGUUUCAAGUUCTT; chemistry not given here) [siRNA of transferrin receptor CD71; ID No. 2]
TPO [1, 11]: Unmeasurable | TPO [1, 12]: Unmeasurable | TPO [1, 13]: Unmeasurable | CD41 (%) [2, 11]: 0.1> % | CD41 (%) [2, 14]: 0.1> % | CD71 % [3, 11]: 5.7 ± 0.2% | CD71 % [3, 14]: 7.5 ± 0.7% | CD71 % [4, 11]: 5.7 ± 0.2% | CD71 % [4, 12]: 13.7 ± 0.6% | CD71 % [4, 13]: 7.5 ± 0.7%

Compound: TPO: thrombopoietin purchased from Stem Cell Technologies, 50 ng/mL in MKLI medium
platelet production ([5]; Day 2 and Day 8 after initiation of culture): slightly produced | ratio of CD41 positive cells ([5]; Day 8, 1.26% before culture, supernatant TPO 43.1±4.9 pg/mL, purchased TPO 50 ng/mL in MKLI medium): 5.56%

Compound: insulin: insulin, 10 μg/mL added to basic medium
cells expressing CD41 [6]: not observed

Compound: CC(=O)N(O)CCCCCNC(=O)CCC(=O)N(O)CCCCCNC(=O)CCC(=O)N(O)CCCCCN [Desferal, deferoxamine mesylate]
CD41 (%) ([7]; Desferal 0.005 mg/mL in basic medium + 200 μg/mL iron-bound transferrin): 36 ± 11.3% | CD41 (%) ([7]; Desferal 0.05 mg/mL in basic medium + 200 μg/mL iron-bound transferrin): 35.5 ± 10.6% | CD41 (%) ([7]; Desferal 0.5 mg/mL in basic medium + 200 μg/mL iron-bound transferrin): 14 ± 5.7% | CD41 (%) ([7]; Desferal 5 mg/mL in basic medium + 200 μg/mL iron-bound transferrin): 10.5 ± 6.4% | CD41 (%) ([7]; Desferal 50 mg/mL in basic medium + 200 μg/mL iron-bound transferrin): 5 ± 2.8%

decrease of concentration of TPO produced compared to the case of 200 μg/mL ([10]; iron-bound transferrin 50 μg/mL): about 25%
Compound: Iron-bound transferrin: holo-transferrin formed by binding an apo-transferrin to an iron ion; manufactured by Sigma
ratio (%) of CD41-positive cells ([8]; c-MPL negative, CD71 negative preadipocytes): 10.8% | ratio (%) of CD41-positive cells ([8]; c-MPL negative, CD71 positive preadipocytes): 26.9% | ratio (%) of CD41-positive cells ([8]; c-MPL positive, CD71 positive preadipocytes): 62.3% | CD41 (%) [9, 15]: 15.5 ± 9.2% | CD41 (%) [9, 16]: 18 ± 9.9% | CD41 (%) [9, 17]: 17.5 ± 9.2% | CD41 (%) [9, 18]: 19 ± 8.5% | CD41 (%) [9, 19]: 11 ± 7.1% | cells expressing CD41 [6]: observed | TPO [10, 15]: Below | TPO [10, 16]: 7.5 ± 1.1 pg/mL | TPO [10, 17]: 10.8 ± 3.5 pg/mL | TPO [10, 18]: 10 ± 2.4 pg/mL | TPO [10, 19]: Below

Compound: OCCS [2-β-mercaptoethanol]
cells expressing CD41 [6]: not observed

Compound: Apo-transferrin: non-iron-bound transferrin, manufactured by Athens Research and Technology
CD41 (%) ([7]; apo-transferrin 200 μg/mL added to basic medium alone): 16.5 ± 4.95% | CD41 (%) ([7]; apo-transferrin 400 μg/mL added to basic medium alone): 14.5 ± 3.54%
